Results published in US6723364B1, “Fog treatment method using a liquid composition for treating fruits and vegetables and implementing device” (Xeda International, priority 1998, dated 2004).

Tested on: potato tubers
Assay: Sprouting-inhibiting treatment of potato tubers by thermal fogging
Type: in vivo
Settings: after 5 months; cold room 8 to 9° C.; 45 g/tonne then 15 g/tonne every 20 days by thermal fogging
Method: The effectiveness of eugenol and of isoeugenol in the sprouting-inhibiting treatment of potato tubers was evaluated and compared with that of other terpenes.
The following compositions were used in the case of eucalyptol, eugenol, isoeugenol, limonene, safrole and terpineol:
60% by weight of terpene;
7% by weight of a nonionic emulsifier;
33% by weight of butyl acetate.
In the case of L-carvone, the following composition was employed:
30% by weight of L-carvone;
10% by weight of ethanol;
5% by weight of nonionic emulsifier;
35% by weight of propylene glycol.
Isopropyl chlorophenylcarbamate (CIPC) is a compound used in the art as sprouting inhibitor for potato tubers. Its activity was compared with that of eugenol and of isoeugenol.
The composition based on isopropyl chloro-phenylcarbamate has the following formulation: […]
20% by weight of isopropyl chlorophenyl-carbamate;
50% by weight of propylene glycol;
10% by weight of nonionic emulsifier;
Each of the compositions tested was applied by thermal fogging. The temperature at the outlet of the thermal fogging device was 240° C., except in the case of the compositions based on L-carvone and on CIPC, where it was 180° C.
The amount of composition which has to be applied is calculated in each case so as to obtain an equivalent concentration of active material on the potato tubers.
In this example, repeated applications were carried out by following the following protocol:
45 g/tonne of tubers at the beginning of storage;
15 g/tonne of tubers every 20 days; so that, after 6 months, 165 g of active principle have been applied per tonne of tubers.
During storage, the tubers were stored in a cold room at a temperature of 8 to 9° C.

Molecule | Loss in weight of the tubers [%] | Total weight of the sprouts >2 mm [g] | Tubers at the white point stage [%] | Tubers with sprouts 2 to 5 mm [%] | Tubers with sprouts <2 mm [%] | Tubers with sprouts >2 mm [%] | Tubers with sprouts >5 mm [%] | Unsprouted tubers [%]
C=C(C)[C@H]1CC=C(C)CC1 [LIMONENE, limonene] | 4.5 | 283.8 | 1.2 | 8.7 | 1.5 | 96.8 | 88.1 | 0.5
L-carvone | 3.3 | 42.0 | 8.7 | 28.8 | 32.3 | 55.0 | 26.2 | 4.0
